Results on seven compounds are retold here after patent US4517003A, “N-acyl phosphoric triamide urease inhibitors and urease inhibited urea based fertilizer compositions” (Allied Corporation, priority 1983, dated 1985).

Each structure is given as a SMILES string. Read-outs that look alike come from different tables or passages of the source.

Data set [1] deals with soil urease. Put plainly: Urease inhibition efficacy test in soil. It counts as biochemical. Particulars: Cazenovia silt loam, pH 7.2, incubated at 25° C. for three days, triplicate. The procedure:
Efficacy tests were conducted to evaluate the efficacy of certain representative phosphoric triamide compounds as urease inhibitors. The inhibition tests were run in a New York soil (Cazenovia silt loam, pH 7.2). […] The bottle was capped with perforated aluminum foil and incubated at 25° C. for three days prior to extraction with 100 mL of a 2M KCl solution containing 0.5 mg of phenylmercuric acetate. The extracts were then analyzed for remaining urea using an autoanalyzer. Percent inhibition was calculated as [formula] Where A is urea recovered from unincubated sample (urea added to soil and immediately extracted); B is urea recovered from inhibited sample; and C is urea recovered from the control (uninhibited sample).

Data set [2] deals with soil nitrification. Put plainly: Nitrification inhibition efficacy test in soil. Particulars: Cazenovia silt loam pH 7.3, 14 days at 25° C.; for % Inhibition at 40 ug per gram of soil, t14 (Inhibition of Soil Nitrification): diammonium phosphate applied after 14 days (t14); for % Inhibition at 40 ug per gram of soil, t0 (Inhibition of Soil Nitrification): diammonium phosphate applied simultaneously (t0). The procedure: Efficacy tests were conducted to evaluate the efficacy of certain representative phosphoric triamide compounds as nitrification inhibitors. All compounds were evaluated in Cazenovia silt loam soil (pH 7.3). The evaluations consisted of applying either simultaneously (to) or after 14 days (t14) a solution of 6.00 mg (300 ug/g soil) of diammonium phosphate in 1 mL of water to triplicate 20 g samples of air dry soil contained in 250 mL square glass bottles that had been treated with a solution of either 0 or 0.800 mg (40 ug/g soil) of the test compound in 5 mL of water. Each bottle was capped with perforated aluminum foil, incubated for 14 days at 25° C. after diammonium phosphate application, and then extracted with 100 mL of 2M potassium chloride containing 0.5 mg (5 mg/L) of phenylmercuric acetate. Each extract was allowed to settle, and an aliquot was frozen and then analyzed for nitrate using an autoanalyzer. The percent inhibition obtained during the incubation was calculated by the formula: [formula] where A is the nitrate recovered from unincubated soil before diammonium phosphate addition; B is nitrate recovered from uninhibited soil; and C is nitrate recovered from inhibited soil.
The compounds selected for use in the composition of this invention are N-(diaminophosphinyl)-2,2,2-trichloroacetamide, N-(diaminophosphinyl)-2,2-dichloroacetamide, and N-(diaminophosphinyl)-2-chloroacetamide.

For data set [3], the target named is T1, jack bean urease (Sigma, Type IX) (Canavalia ensiformis, UniProt P07374).
T1 construct: purchased Sigma Type IX
Put plainly: Jack bean urease inhibition (modified Bremner procedure, homogeneous solution). It counts as biochemical. The settings on record: for inhibition at 0.01 µM: read-out: % Inhibition at Specific Inhibitor Concentrations 10^-8 M. The procedure: Efficacy tests were also conducted with jack bean urease. The procedure of Bremner (see L. A. Douglas and J. M. Bremner, Soil Biol. Biochem., 3, 859-62 (1970) and references therein) was modified by replacing the soil as the source of urease with commercial purified jack bean urease (Sigma, Type IX). The incubation then proceeds in homogeneous solution.
The prior art compound selected for comparative testing was N-(diaminophosphinyl)-p-chlorobenzamide, and the compounds selected for use in the composition of this invention are N-(diaminophosphinyl)-2,2,2-trichloroacetamide, N-(diaminophosphinyl)-2,2-dichloroacetamide, and N-(diaminophosphinyl)-2-chloroacetamide The test procedure employed was identical to that used in Example VII.

Data set [4] can be described thus: Solubility in ice-cold water (observation during work-up). It counts as physicochemical. The procedure: The titled compound was prepared in accordance with the procedure of Example I. Using 2-chloroacetamide (7.02 g, 75 mmol), phosphorus pentachloride (15.6 g, 75 mmol) and formic acid (2.9 mL, […]), were reacted to form 16.0 g of N-(dichlorophosphinyl)-2-chloroacetamide, which was reacted with anhydrous ammonia in ether to form N-(diaminophosphinyl)-2-chloroacetamide.

[5] abbreviates: Table II, 10^-6 M inhibitor, jack bean urease, read-out: % Inhibition at Specific Inhibitor Concentration 10^-6 M.
Setting [6] is: Table II, 10^-7 M inhibitor, jack bean urease, read-out: % Inhibition at Specific Inhibitor Concentration 10^-7 M.
The mark [7] stands for this setting: Table III (comparison with prior art), 10^-6 M inhibitor, jack bean urease, read-out: % Inhibition at Specific Inhibitor Concentrations 10^-6 M.
Where [8] appears, read: Table III (comparison with prior art), 10^-7 M inhibitor, jack bean urease, read-out: % Inhibition at Specific Inhibitor Concentrations 10^-7 M.

T1 sequence (P07374 whole entry, looked up): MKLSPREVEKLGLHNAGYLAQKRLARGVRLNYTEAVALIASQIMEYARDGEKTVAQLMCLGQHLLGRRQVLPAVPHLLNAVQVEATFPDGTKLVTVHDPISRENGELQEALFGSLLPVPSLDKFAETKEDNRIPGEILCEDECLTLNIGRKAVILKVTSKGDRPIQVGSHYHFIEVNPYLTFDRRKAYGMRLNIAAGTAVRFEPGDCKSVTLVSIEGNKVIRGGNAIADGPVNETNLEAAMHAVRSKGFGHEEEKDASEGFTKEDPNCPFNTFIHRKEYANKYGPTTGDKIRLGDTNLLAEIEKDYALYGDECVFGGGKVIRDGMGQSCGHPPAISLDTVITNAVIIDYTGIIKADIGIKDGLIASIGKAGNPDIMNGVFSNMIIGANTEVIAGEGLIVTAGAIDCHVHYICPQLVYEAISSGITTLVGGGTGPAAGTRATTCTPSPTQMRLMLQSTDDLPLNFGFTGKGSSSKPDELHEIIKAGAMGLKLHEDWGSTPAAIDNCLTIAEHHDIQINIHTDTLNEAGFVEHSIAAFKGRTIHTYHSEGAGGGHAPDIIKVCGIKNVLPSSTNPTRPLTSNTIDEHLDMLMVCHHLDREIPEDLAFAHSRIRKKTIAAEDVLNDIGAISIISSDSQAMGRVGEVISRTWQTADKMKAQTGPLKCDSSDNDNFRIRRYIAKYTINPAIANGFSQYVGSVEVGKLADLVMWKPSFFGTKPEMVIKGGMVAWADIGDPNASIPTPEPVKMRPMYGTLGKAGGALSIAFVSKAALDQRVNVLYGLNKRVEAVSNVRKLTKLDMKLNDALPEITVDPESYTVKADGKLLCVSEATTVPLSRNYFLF

In the case of `NP(N)(=O)NC(=O)C(Cl)Cl` [Example I, N-(Diaminophosphinyl)-2,2-dichloroacetamide], the “% Inhibition at 40 ug per gram of soil (Inhibition of Soil Urease)” value in data set [1] is reported as 73%. For the same compound, in data set [2], the “% Inhibition at 40 ug per gram of soil, t14 (Inhibition of Soil Nitrification)” value worked out at 9%. The “% Inhibition at 40 ug per gram of soil, t0 (Inhibition of Soil Nitrification)” value in data set [2] was found to be 18%. Further, the inhibition at 1 µM in data set [3] (setting [5]) and in data set [3] (setting [7]) was 100% each time. Moreover, the inhibition at 0.1 µM was 80 to 100% in data set [3] (setting [6]) and 100% in data set [3] (setting [8]).

Consider `NP(N)(=O)NC(=O)CCl` [Example II, N-(Diaminophosphinyl)-2-chloroacetamide], for which, in data set [4], the Solubility in water entry is “very soluble even in ice-cold water”. The “% Inhibition at 40 ug per gram of soil (Inhibition of Soil Urease)” value in data set [1] came out at 83%. Besides, the “% Inhibition at 40 ug per gram of soil, t14 (Inhibition of Soil Nitrification)” value in data set [2] amounted to 0%. The “% Inhibition at 40 ug per gram of soil, t0 (Inhibition of Soil Nitrification)” value in data set [2] is 2%. The inhibition at 1 µM in data set [3] (setting [5]) and in data set [3] (setting [7]) was 100% in each case. Besides, the inhibition at 0.1 µM in data set [3] (setting [6]) was found to be 81%; in data set [3] (setting [8]) it was 50%.

Consider `NP(N)(=O)NC(=O)C(Cl)(Cl)Cl` [Example III, N-(Diaminophosphinyl)-2,2,2-trichloroacetamide], for which the “% Inhibition at 40 ug per gram of soil (Inhibition of Soil Urease)” value in data set [1] is recorded as 64%. Further, the “% Inhibition at 40 ug per gram of soil, t14 (Inhibition of Soil Nitrification)” value in data set [2] amounted to 3%. For the same compound, the “% Inhibition at 40 ug per gram of soil, t0 (Inhibition of Soil Nitrification)” value in data set [2] was 47%. The inhibition at 1 µM in data set [3] (setting [5]) was 93 to 100%. In addition, the inhibition at 0.1 µM in data set [3] (setting [6]) was 70%; in data set [3] (setting [8]), 78%. The inhibition at 0.01 µM in data set [3] (Table III (comparison with prior art), 10^-8 M inhibitor, jack bean urease) turned out to be 13%.

On to `N#CCC(=O)NP(N)(N)=O` [Example V, N-(Diaminophosphinyl)-2-Cyanoacetamide], for which the inhibition at 1 µM in data set [3] (setting [5]) worked out at 56%.

Consider `NP(N)(=O)NC(=O)C(F)(F)F` [IV, N-(Diaminophosphinyl)-2,2,2-trifluoroacetamide], for which the “% Inhibition at 40 ug per gram of soil (Inhibition of Soil Urease)” value in data set [1] is reported as 52%. Also, the inhibition at 1 µM in data set [3] (setting [5]) stood at 100%. Also, the inhibition at 0.1 µM in data set [3] (setting [6]) amounted to 22%.

Turning to `COc1ccc(C(=O)NP(N)(N)=O)cc1` [N-(Diaminophosphinyl)-4-methoxybenzamide, N-(diaminophosphinyl)-4-methoxybenzamide, reference compound], in data set [2], the “% Inhibition at 40 ug per gram of soil, t14 (Inhibition of Soil Nitrification)” value came to 13% and the “% Inhibition at 40 ug per gram of soil, t0 (Inhibition of Soil Nitrification)” value is recorded as 4%.

On to `NP(N)(=O)NC(=O)c1ccc(Cl)cc1` [N-(Diaminophosphinyl)-p-chlorobenzamide, N-(diaminophosphinyl)-p-chlorobenzamide, reference compound], for which the inhibition at 1 µM in data set [3] (read-out: % Inhibition at Specific Inhibitor Concentrations 10^-6 M) worked out at 83%. Also, the inhibition at 0.1 µM in data set [3] (read-out: % Inhibition at Specific Inhibitor Concentrations 10^-7 M) came to 20%. In data set [3], the inhibition at 0.01 µM is 14%.
